Data from patent US9700547B2, “Use of 6-hydroxy-2-pyridones and derivatives thereof for preparing a pharmaceutical composition that acts by inhibiting the human uridine phosphorylase enzyme” (UNIÃO BRASILEIRA DE EDUCAÇÃO E ASSISTÊNCIA, MANTENEDORA DA …, priority 2013, dated 2017).

What was measured:
[1] = biological target: T1, Human Phosphorylase Uridine 1 (hUP1) (Homo sapiens, UniProt Q16831); experiment: hUP1 enzymatic assay, inhibition at 1 μM (UV absorbance of uridine at 280 nm); format: biochemical; conditions: 1 μM compound, 37° C.
T1 sequence (Q16831 whole entry): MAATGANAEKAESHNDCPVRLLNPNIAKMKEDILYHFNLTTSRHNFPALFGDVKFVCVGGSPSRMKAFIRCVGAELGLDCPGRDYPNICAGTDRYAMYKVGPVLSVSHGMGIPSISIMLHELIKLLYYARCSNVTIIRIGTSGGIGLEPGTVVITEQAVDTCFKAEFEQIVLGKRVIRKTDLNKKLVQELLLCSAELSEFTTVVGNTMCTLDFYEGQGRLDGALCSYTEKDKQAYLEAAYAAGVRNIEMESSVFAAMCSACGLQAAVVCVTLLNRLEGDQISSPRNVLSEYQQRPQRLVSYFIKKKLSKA
Experimental: (§1) The enzymatic activity of the hUP1 is performed through the enzymatic essay using one spectrophotometer UV/visible where the absorbance reduction of uridine in 280 nm, for 1 min and at 37° C. was monitored.
For determining which inhibitors would be selected for determining the inhibition constant (Ki), one cut point of 1 μM was stipulated, where only those compounds that would inhibit more than 60% of the initial activity of the enzyme would be selected for this type of analysis (Table 1). From all compounds tested, 7 molecules had its inhibition above 60% with the concentration of 1 μM (Compounds c1, c2, c3, c4, c6, c12, and c13). All essays described on this patent application were performed for these compounds and for benzil acyclo uridine (BAU), in order to perform a direct comparison of the results achieved with the better in vitro inhibitor of the hUP1 described (standard).

[2] = biological target: T1, Human Phosphorylase Uridine 1 (hUP1); experiment: Ki and inhibition type from substrate saturation curves, double-reciprocal analysis; format: biochemical; conditions: for Inhibiting type for phosphate: substrate Pi; for Inhibition type for uridine: substrate uridine
Experimental: as §1
For determining Ki for the selected inhibitors, we performed saturation curves where the concentration of one of the substrates is fixed next to the Km and the concentration of another, varied until the saturation in fixed-varying concentrations of each one of the inhibitors.
(I) v=VA/[Ka(1+I/Kii)+A(1+Kis)] (II) v=VA/[A(1+I/Kis)+Ka] (III)

[3] = biological target: hUP1-Pi (Homo sapiens, UniProt Q16831); experiment: isothermal titration microcalorimetry (ITC), enzyme complexed with substrate Pi; format: binding
hUP1-Pi, sequence (Q16831 whole entry): as above
Experimental: (§2) For determining the thermodynamic parameters (enthalpy variation—ΔH, entropy variation—ΔS, and free energy variation of Gibbs—ΔG) were performed compounds binding essays to the enzyme in different conditions: free enzyme, complexed enzyme with the substrate Pi, and the complexed enzyme with the product ribose-1-phosphate (R1P). For such analyses, it was used isothermal titration microcalorimetry (ITC) where the equipment monitors the difference of transferred heat, between the reference cell and the sample cell, when bindings are formed or broken during the binding process. The data analysis achieved was performed through the model One Set of Sites and the determination of ΔG and the dissociation constant (KD) were through the equations (IV) and (V) below, respectively: ΔG=ΔH−TΔS (IV) KD=1/Ka (V)

[4] = biological target: hUP1-R1P (Homo sapiens, UniProt Q16831); experiment: isothermal titration microcalorimetry (ITC), enzyme complexed with product ribose-1-phosphate; format: binding
hUP1-R1P, sequence (Q16831 whole entry): as above
Experimental: as §2

[5] = tested on: intestinal mucositis caused by 5-FU; experiment: intestinal mucositis model caused by 5-FU (weight, diarrhea, villus histology); format: in vivo, female Wistar mouse; conditions: 5 days
Experimental: The compound c3 was tested in in vivo for evaluating its protection regarding intestinal mucositis caused by 5-FU. The mucositis model was developed in female Wistar mouse (180-200 g) and the animals were divided into 5 groups with 4 animals in each group: Group 1: Saline+Saline Group 2: Compound c3 (150 mg/kg)+saline Group 3: Saline+5-FU (50 mg/kg) Group 4: Compound c3 (50 mg/kg)+5-FU (50 mg/kg) Group 5: Compound c3 (150 mg/kg)+5-FU (50 mg/kg) The test compound was administrated via oral, 30 minutes before administrating the chemotherapeutic 5-FU that was administrated via intraperitoneal. This treatment was followed for 5 days with once a day administrations. In the 5th treatment day, the animals were euthanized using one inhalational anesthetic (isoflurane) and the initial portion of the intestine (corresponding to jejunum and ileus) was collected for myeloperoxidase analysis (MPO) and histological analysis of the tissue, as well blood collect for quantification analysis of the uridine in the plasma. The animals were also followed-up regarding weight loss and diarrhea.

[6] = tested on: plasma uridine; experiment: uridine concentration in animals' plasma by HPLC (mucositis model); format: in vivo, female Wistar mouse; conditions: compound orally, either 50 mg/kg or 150 mg/kg
Experimental: The test compound was administrated via oral, 30 minutes before administrating the chemotherapeutic 5-FU that was administrated via intraperitoneal. This treatment was followed for 5 days with once a day administrations. In the 5th treatment day, the animals were euthanized using one inhalational anesthetic (isoflurane) and the initial portion of the intestine (corresponding to jejunum and ileus) was collected for myeloperoxidase analysis (MPO) and histological analysis of the tissue, as well blood collect for quantification analysis of the uridine in the plasma. The animals were also followed-up regarding weight loss and diarrhea.
The determination of the uridine concentration in the animals' plasma as performed by HPLC, using as mobile phase acetic acid 0.1%. First, it was made a calibration curve using commercial uridine as standard (Sigma) in the concentrations of 0.625-1.25-2.5-5.0-10.0-20.0 μM in mice plasma to keep the same matrix where the samples ones are. After the calibration curve, the plasma samples were analyzed of each group and was one positive result was achieved. As was expected, there was an increase of 4.4 times in the uridine concentration in the animals' plasma that received the compound orally, either in the dose of 50 mg/kg or in the dose of 150 mg/kg (FIGS. 5A and 5B). […]

[7] = tested on: myeloperoxidase (MPO) in initial portion of the intestine; experiment: MPO analysis in repeated mucositis model; format: in vivo; conditions: 50 mg/kg orally of 8-8 h, starting 2 days before 5-FU and 2 further days with 5-FU
Experimental: The last in vivo analysis was regarding the MPO. The MPO is a primary answer of inflammation, present in neutrophils, and for that it was analyzed which is the best day of euthanasia to check this primary answer. The treatment schema lasted 5 days, where the animals were divided into 2 groups with 10 animals in each (Group Saline and Group 5-FU). The 5-FU (50 mg/kg) was administrated using the intraperitoneal via, as well the Saline. The animals were put into euthanasia in 24 h, 48 h, 72 h, 96 h and 120 h after the administration (days 1-5) and the initial portion of the intestine was collected. It was verified that the best day for MPO quantification would be day 2 (48 h after 5-FU administration), such as represented in the FIG. 6, in which the statistical analysis was performed though one-way ANOVA followed by Bonferroni test. The lines represent the standard error while each column represents the mean of two animals of each group. *Significant difference regarding group Saline (*p<0.05).
The first experiment of mucositis was repeated, with 3 groups having 5 animals in each (Group Saline+Saline, Group Saline+5-FU and Group Compound c3+5-FU). […] The animals were euthanized with isoflurane and the initial portion of the intestine was analyzed. […]

[8] = biological target: hUP1 (Homo sapiens, UniProt Q16831); experiment: isothermal titration microcalorimetry (ITC), free enzyme; format: binding
hUP1, sequence (Q16831 whole entry): as above
Experimental: as §2

[9] = biological target: T1, Human Phosphorylase Uridine 1 (hUP1); conditions: literature value, said to be confirmed by own experiments; read-out: constant inhibition for uridine described on the literature; cited from earlier work
[10] = c3 50 or 150 mg/kg oral 30 min before 5-FU 50 mg/kg intraperitoneal, once a day

Inhibiting type for phosphate [2] | Inhibition type for uridine [2] | Kd [3] [µM] | ΔG° [3] [kJ/mol] | ΔH° [3] [kJ/mol] | −TΔS (kcal/mol/deg) [3] [kcal/mol/deg] | Kd ([4]; hUP1-R1P 50 μM) [µM] | ΔG° ([4]; hUP1-R1P 50 μM) [kJ/mol] | ΔH° ([4]; hUP1-R1P 50 μM) [kJ/mol] | Kd ([4]; hUP1-R1P 150 μM) [µM] | ΔG° ([4]; hUP1-R1P 150 μM) [kJ/mol] | ΔH° ([4]; hUP1-R1P 150 μM) [kJ/mol] | SMILES | other results
Uncompetitive | Not competitive | 12 ± 1.4 | -28.9 ± 3.3 | -79.5 ± 5.44 | 12 ± 1.4 | 1.4 ± 0.341 | -34.7 ± 8.37 | -130 ± 5.02 | 0.04 | -41 ± 5.86 | -87.9 ± 0.42 | Cc1cc(O)[nH]c(=O)c1C#N [Compound c3] | Inhibition with 1 μM (%) [1]: 70%; inhibition at 1 µM [1]: > 60%; −TΔS (kcal/mol/deg) ([4]; hUP1-R1P 50 μM): 92 ± 22.6 kJ/mol; −TΔS (kcal/mol/deg) ([4]; hUP1-R1P 150 μM): 46 ± 6.28 kJ/mol; Kd ([4]; hUP1-R1P 200 μM): 0.02 µM; ΔG° ([4]; hUP1-R1P 200 μM): -46 ± 5.44 kJ/mol; ΔH° ([4]; hUP1-R1P 200 μM): -92 ± 0.42 kJ/mol; −TΔS (kcal/mol/deg) ([4]; hUP1-R1P 200 μM): 46 ± 5.44 kJ/mol; intestinal villus size (histological analysis) ([5]; both tested doses (50 and 150 mg/kg oral) + 5-FU 50 mg/kg intraperitoneal): statistically equal to the group Saline and different from the group 5-FU; protection from diarrhea caused by 5-FU [5, 10]: not able to avoid these side effects; protection from weight loss caused by 5-FU [5, 10]: not able to avoid these side effects; increase in the uridine concentration in the animals' plasma [6]: 4.4 times; MPO, primary inflammation process [7]: not able to revert the primary inflammation process
Not competitive | Competitive | 1.4 ± 0.239 | -34.3 ± 5.86 | -54.4 ± 1.3 | 4.6 ± 0.8 | 1.2 ± 0.244 | -34.3 ± 7.11 | -50.2 ± 1.3 | 6.6 ± 0.898 | -30.5 ± 4.18 | -83.7 ± 2.9 | O=c1[nH]c(=O)n(COCCO)cc1Cc1ccccc1 [BAU, benzil acyclo uridine, reference compound] | Kd [8]: 1.2 ± 0.15 µM; ΔG° [8]: -35.1 ± 4.18 kJ/mol; ΔH° [8]: -41.8 ± 0.42 kJ/mol; −TΔS (kcal/mol/deg) [8]: 1.5 ± 0.2 kcal/mol/deg; Ki [9]: 0.1 µM
